Read-outs that look alike come from different tables or passages of the source. Square brackets hold non-standard residues; d marks the D form. Peptide text beside a SMILES is read from it. * marks the point of attachment. Phg = N[C@H](C(=O)O)c1ccccc1; Cbz = O=C(OCc1ccccc1)*; OtBu = CC(C)(C)O*
Key:
[1] = target: Caspase-1 (Homo sapiens (Human), UniProt P29466); assay: Caspase-1 Inhibitor Drug Screening Kit, fluorometric (AFC liberation); type: biochemical; conditions: 30-minute incubation at 37° C.; approximations of the average values; read-out: Caspase enzymatic activity, IC50 (uM) Caspase 1
Sequence of Caspase-1 (P29466 120-404): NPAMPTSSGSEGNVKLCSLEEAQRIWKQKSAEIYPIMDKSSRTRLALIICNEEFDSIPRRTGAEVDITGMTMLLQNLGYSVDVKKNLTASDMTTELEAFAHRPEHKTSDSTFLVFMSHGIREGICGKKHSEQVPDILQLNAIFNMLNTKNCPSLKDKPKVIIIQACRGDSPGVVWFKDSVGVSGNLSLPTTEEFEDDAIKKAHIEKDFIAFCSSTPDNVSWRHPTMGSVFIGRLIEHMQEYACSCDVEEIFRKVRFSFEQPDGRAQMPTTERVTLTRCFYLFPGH
Protocol: (§1) The level of inhibition of caspase-1, -3, -5, -7, -9 activity was determined by comparison of the relative fluorescence intensity in samples with or without the compound.

[2] = system: proteolytic cleavage of PARP (poly ADP-ribose polymerase) in Hela cells; assay: Inhibition of staurosporine-induced PARP cleavage in live Hela cells; type: cell-based; conditions: Homo sapiens, HeLa
Protocol: To test the efficacy of caspase-3 inhibitors at the cellular level, the ability of selected compounds to inhibit the proteolytic cleavage of PARP (poly ADP-ribose polymerase) was evaluated in live Hela cells.
Briefly, in this assay Hela cells are seeded in 96 well plates and incubated for 4 hours with staurosporine, a well characterized inducer of apoptosis, alone or together with different concentrations of compound (50, 25, 10 and 3 uM). After formaldehyde-based fixation, the cells are stained with a fluorescein-labeled anti-cleaved PARP antibody (Cell signaling, Cat#: 9547) and counterstained with Hoechst33342 (Invitrogen, Cat#: H3570) to mark all nuclei. Fluorescence images are taken on a Cellomics™ microscope system (Thermo Scientific, Pittsburgh, USA) with the Hoechst stain in the blue channel and the cleaved PARP antibody stain in the green channel. The percentage of cleaved PARP positive cells is determined by calculating the ratio between nuclei with a cleaved PARP antibody staining above a certain threshold and all (Hoechst positive) nuclei. The efficacy of caspase-3 inhibition is determined by calculating the ratio between cleaved PARP positive cells after staurosporine incubation together with compounds and staurosporine incubation without compounds.

[3] = target: Caspase-9 (Homo sapiens (Human), UniProt P55211); assay: Caspase-9 Inhibitor Drug Screening Kit, fluorometric (AFC liberation); type: biochemical; conditions: 30-minute incubation at 37° C.; approximations of the average values; read-out: Caspase enzymatic activity, IC50 (uM) Caspase 9
Sequence of Caspase-9 (P55211 whole entry): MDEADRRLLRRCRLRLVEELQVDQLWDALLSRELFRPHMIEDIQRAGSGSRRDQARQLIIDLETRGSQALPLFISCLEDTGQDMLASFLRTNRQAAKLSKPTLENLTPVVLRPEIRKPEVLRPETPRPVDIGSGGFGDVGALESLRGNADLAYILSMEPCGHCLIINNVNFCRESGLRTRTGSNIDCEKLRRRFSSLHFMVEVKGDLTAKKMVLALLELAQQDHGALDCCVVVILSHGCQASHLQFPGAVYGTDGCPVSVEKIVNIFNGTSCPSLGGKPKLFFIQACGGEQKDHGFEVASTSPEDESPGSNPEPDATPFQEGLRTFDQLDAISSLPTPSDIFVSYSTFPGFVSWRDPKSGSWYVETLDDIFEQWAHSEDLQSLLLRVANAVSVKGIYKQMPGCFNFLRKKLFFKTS
Protocol: as §1

[4] = target: Caspase-5 (Homo sapiens (Human), UniProt P51878); assay: Caspase-5 Inhibitor Drug Screening Kit, fluorometric (AFC liberation); type: biochemical; conditions: 30-minute incubation at 37° C.; approximations of the average values; read-out: Caspase enzymatic activity, IC50 (uM) Caspase 5
Sequence of Caspase-5 (P51878 137-434): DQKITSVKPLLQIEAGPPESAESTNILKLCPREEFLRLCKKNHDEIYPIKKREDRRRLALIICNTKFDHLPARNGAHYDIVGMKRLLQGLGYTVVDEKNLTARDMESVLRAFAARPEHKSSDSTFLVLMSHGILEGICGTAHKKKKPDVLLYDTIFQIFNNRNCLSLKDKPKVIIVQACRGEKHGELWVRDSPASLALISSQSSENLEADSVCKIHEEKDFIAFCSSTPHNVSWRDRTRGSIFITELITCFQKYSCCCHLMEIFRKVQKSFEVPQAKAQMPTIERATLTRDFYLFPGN
Protocol: as §1

[5] = target: Caspase-3 (Homo sapiens (Human), UniProt P42574); assay: Caspase-3 Inhibitor Drug Screening Kit, fluorometric (AFC liberation); type: biochemical; conditions: for IC50: 30-minute incubation at 37° C., approximations of the average values, read-out: Caspase enzymatic activity, IC50 (uM) Caspase 3
Sequence of Caspase-3 (P42574 29-277): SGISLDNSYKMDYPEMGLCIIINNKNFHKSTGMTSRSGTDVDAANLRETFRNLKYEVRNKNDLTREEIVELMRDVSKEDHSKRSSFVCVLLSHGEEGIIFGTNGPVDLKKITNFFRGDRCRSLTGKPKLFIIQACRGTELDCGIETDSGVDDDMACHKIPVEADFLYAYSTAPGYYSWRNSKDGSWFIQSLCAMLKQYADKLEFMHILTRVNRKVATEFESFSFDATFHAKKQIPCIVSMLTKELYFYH
Protocol: as §1

[6] = system: Glo3/7; assay: Glo3/7 assay; type: biochemical
[7] = target: Caspase-7 (Homo sapiens (Human), UniProt P55210); assay: Caspase-7 Inhibitor Drug Screening Kit, fluorometric (AFC liberation); type: biochemical; conditions: 30-minute incubation at 37° C.; approximations of the average values; read-out: Caspase enzymatic activity, IC50 (uM) Caspase 7
Sequence of Caspase-7 (P55210 whole entry): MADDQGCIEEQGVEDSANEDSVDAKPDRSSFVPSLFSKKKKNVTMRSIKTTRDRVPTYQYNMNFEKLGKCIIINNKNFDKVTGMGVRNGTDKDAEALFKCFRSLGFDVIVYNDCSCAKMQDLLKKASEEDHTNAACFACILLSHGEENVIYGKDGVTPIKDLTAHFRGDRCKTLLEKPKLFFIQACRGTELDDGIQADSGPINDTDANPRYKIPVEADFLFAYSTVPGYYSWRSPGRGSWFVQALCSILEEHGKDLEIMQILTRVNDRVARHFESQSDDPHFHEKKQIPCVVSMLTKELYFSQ
Protocol: as §1

[8] = 4 h, read-out: % inhibition of PARP cleavage at 50 uM compound, Hela cells, staurosporine 4 hours, 50 uM compound
[9] = Hela cells, 50 uM, read-out: % of inhibition with compound relative to DEVDFMK

Row | Compound | IC50 [1] [µM] | IC50 [3] [µM] | IC50 [4] [µM] | activity against caspase-3 [5] | IC50 [5] [µM] | IC50 [6] [µM] | IC50 [7] [µM] | inhibition at 50 µM [2, 8] [%] | inhibition at 50 µM [2, 9] [%]
1 | CS(=O)(=O)/C=C/[C@@H](N)CC(=O)O.Cc1ccc(S(=O)(=O)O)cc1 [Compound 93, AspVSmethyl] | > 3.33 | > 3.33 | > 3.33 | devoid of any activity | > 10 | > 50 | > 3.33 | 15 | 25
2 | CC(C)[C@H](NC(=O)[C@H](Cc1ccc2ccccc2n1)NC(=O)[C@H](CC(=O)OC(C)(C)C)NC(=O)OCc1ccccc1)C(=O)N[C@H](/C=C/S(=O)(=O)N1CCOCC1)CC(=O)OC(C)(C)C [Compound 66, Z-Asp(β-tert-Butyl)-Ala(2′-quinolyl)-Val-Asp(β-tert-Butyl)morpholine Vinyl Sulfone] | > 3.33 | > 3.33 | > 3.33 |  | 0.2 | 1.4 | > 3.33 |  | 35
3 | CC(C)[C@H](NC(=O)[C@@H](NC(=O)[C@H](CC(=O)O)NC(=O)OCc1ccccc1)c1ccccc1)C(=O)N[C@H](/C=C/S(=O)(=O)c1ccccc1)CC(=O)O [Compound 69, Z-Asp-Phg-Val-Asp-phenyl Vinylsulfone] | > 3.33 | > 3.33 | > 10 |  | 0.1 | 1.4 | 1.8 | 20 | 35
4 | Cc1ccc(S(=O)(=O)N[C@@H](Cc2ccc3ccccc3n2)C(=O)N[C@H](C(=O)N[C@H](/C=C(\Cl)S(C)(=O)=O)CC(=O)O)C(C)C)cc1 [Compound 50] | > 3.33 | > 3.33 | > 3.33 |  | > 3.33 | 40 | > 3.33 | 0 | 0
5 | CC(C)[C@H](NC(=O)[C@@H](NC(=O)[C@H](CC(=O)OC(C)(C)C)NC(=O)OCc1ccccc1)c1ccccc1)C(=O)O [Compound 16, Z-Asp(β-tert-butyl)-Phg-Val-OH] (Cbz-Asp(OtBu)-[Phg]-Val-OH) | > 3.33 | > 3.33 | > 3.33 | devoid of any activity | > 2 | > 50 | > 3.33 | 13 | 23

The next lines start with results.

Row | IC50 [1] [µM] | IC50 [3] [µM] | IC50 [4] [µM] | activity against caspase-3 [5] | IC50 [5] [µM] | IC50 [6] [µM] | IC50 [7] [µM] | Compound | inhibition at 50 µM [2, 8] [%] | inhibition at 50 µM [2, 9] [%]
6 | 1.3 | > 10 | > 3.33 |  | > 10 | > 50 | > 10 | CC(C)[C@H](NC(=O)[C@H](Cc1ccc(O)cc1)NC(=O)OCc1ccccc1)C(=O)N[C@@H](C)C(=O)N[C@H](/C=C/S(=O)(=O)c1ccccc1)CC(=O)O [Compound 96, z-Tyr-Val-Ala-AspVS phenyl] | 1 | 2
7 | > 3.33 | > 3.33 | > 3.33 |  | 0.03 | 0.04 | 0.7 | CC(C)[C@H](NC(=O)[C@H](Cc1ccc(O)cc1)NC(=O)[C@H](CC(=O)O)NC(=O)OCc1ccccc1)C(=O)N[C@H](/C=C/S(C)(=O)=O)CC(=O)O [Compound 76, Z-Asp-Tyr-Val-Aspmethyl vinyl sulfone] | > 50 | 
8 | 0.5 | 1.6 | > 3 |  | 0.3 | 3.7 | > 5 | CC(C)[C@H](NC(=O)[C@H](CCC(=O)O)NC(=O)[C@H](Cc1ccc(O)cc1)NC(=O)OCc1ccccc1)C(=O)N[C@H](/C=C/S(C)(=O)=O)CC(=O)O [Compound 82] | 15 | 15
9 | > 10 | > 10 | > 10 |  |  | 0.3 | 8.9 | CC(C)[C@H](NC(=O)C(Cc1ccc2ccccc2n1)NC(=O)[C@H](CC(=O)O)NC(=O)OCc1ccccc1)C(=O)N[C@H](/C=C/S(C)(=O)=O)CC(=O)O (some centres unmarked) [Compound 71, Z-Asp-(D,L Ala(2′-quinolyl))-Val-Aspmethyl Vinylsulfone] | 20 | 35
